The source of these data is PubChem BioAssay (NCI).

In this experiment the test system is MDA-MB-468 breast. The experiment is described as follows: DTP human tumour cell line panel, 48 h.

Where “and” joins values, the source holds several entries; their conditions need not be identical. Identical values can stand only once.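 Test compounds were applied to cells in 96-well plates for 48 hours at 5 doses. GI50 = concentration required for 50% inhibition of growth. TGI denotes the concentration required for complete inhibition of growth.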

Turning to `COc1ccc(/C(C#N)=C/c2nc3c(N4CCOCC4)nc(Cl)nc3n2C)cc1OC`, the GI50 was 20.4 nM and the TGI was found to be 1340 nM.
Consider `CCCCCCCC(=O)SCC/C=C/[C@@H]1CC(=O)NCc2cccc(n2)CN(Cc2ccc(Cl)cc2)CC(=O)N[C@@H](C(C)C)C(=O)O1`, for which the GI50 was 13800 nM and the TGI was over 100000 nM.
The matching figures for `CC(C)=CCNc1ncnc2c1ncn2C1OC(COP(=O)(O)O)C(O)C1O` (centres undefined): 2010 nM and 5400 nM.
The corresponding values for `COc1cc(OC)cc(-c2n[nH]nc2-c2ccc3c(c2)OCO3)c1` are 226 nM and 25800 nM.
On to `CCCCCc1c(C)[nH]c(/C=C2\N=C(c3ccc[nH]3)C=C2Oc2ccc(OC)cc2)c1C`, for which the GI50 was 65.5 nM and 27.1 nM; the TGI is 2040 nM and 288 nM.
Take `Cc1cc(C)c2nc(Nc3nc(C)c(C)c(=O)[nH]3)nc(C)c2c1`: the GI50 is 2130 nM and the TGI turned out to be 5890 nM.
For the compound `COC(=O)c1ccc2c(c1)[n+](=O)c(C(C)=O)c(C(F)(F)F)n2[O-]`, the GI50 was 1560 nM and the TGI was 3040 nM.
With `COc1ccc(C2CC(c3cccc(Nc4ccnc5cc(Cl)ccc45)c3)=NN2c2ccccc2)cc1` (centres undefined), the GI50 is 2130 nM and the TGI came out at 34300 nM.
The corresponding values for `O=C(CCCCCn1c2ccccc2c2c3c(c4c5ccccc5[nH]c4c21)C(=O)N(O)C3=O)N1CCOCC1` are 2710 nM and 5900 nM.
For `COc1ccc(CNCCN2C(=O)c3ccc4c5c(ccc(c35)C2=O)C(=O)N(CCNCc2ccc(OC)cc2)C4=O)cc1`, the GI50 is 191 nM and the TGI turned out to be 482 nM.
With `COc1cc(C2C3=C(COC3=O)N(CCO)c3cc4c(cc32)OCCO4)cc(OC)c1O` (centres undefined), the GI50 was 1010 nM and the TGI is over 11600 nM.
As to `CCSc1sc(-c2ccc(C)cc2)nc1[P+](c1ccccc1)(c1ccccc1)c1ccccc1`, the GI50 was 219 nM and the TGI is 731 nM.
The matching figures for `Nc1ncnc2c1ncn2C1OC(CO)C(O)C1O` (centres undefined): 2140 nM and 5410 nM.
The corresponding values for `N=C(N)c1ccc(-c2ccc(-c3ccco3)o2)cc1` are 1390 nM and 3790 nM.
`O=C(NCCc1ccccc1)C(c1csc2ccccc12)N(C(=O)CCl)c1ccc(-c2cnco2)cc1` (centres undefined): the GI50 was 812 nM and the TGI was 2600 nM.
The corresponding values for `C=C1c2c(C)nn(-c3ccccc3)c2N(C)C23C[C@@H]1C1(C)c4c(C)nn(-c5ccccc5)c4N(C)C(C)(C[C@H]12)C3` (some centres undefined) are 2900 nM and 27900 nM.
The corresponding values for `O=c1cc(N2CCOCC2)oc2c(-c3ccccc3)cccc12` are 2850 nM and 18000 nM.
The corresponding values for `CC(=O)c1c[nH]c2ccc(-c3ccnc(Nc4ccc(NC(=O)c5cccc(F)c5)c(CN5CCOCC5)c4)n3)cc12` are 172 nM and 582 nM.
With `C=CC[n+]1c(/C=C2\Sc3ccccc3N2C)sc(-c2ccccc2)c1-c1ccccc1`, the GI50 is 251 nM and the TGI worked out at 911 nM.
The matching figures for `CN1CCN(c2nc(NCCNc3ccnc4cc(Cl)ccc34)c3ccccc3n2)CC1`: 1460 nM and 4640 nM.
On to `CN1CCN(c2nc(C3=C(c4c[nH]c5ccccc45)C(=O)NC3=O)c3ccccc3n2)CC1`, for which the GI50 is 13400 nM and 15000 nM; the TGI is 43600 nM and 30400 nM.
Regarding `COc1cc(C2CC(c3ccc(C)cc3)=NN2C(C)=O)ccc1Oc1ccnc2cc(Cl)ccc12` (centres undefined), the GI50 is 20700 nM and the TGI was over 100000 nM.
On to `Oc1ccc(Br)cc1CN1CCN(Cc2ccc(Cl)cc2)CC1`, for which the GI50 is 5100 nM and the TGI was found to be 55800 nM.
The matching figures for `N#CC1=C(N)Oc2c(sc3c(F)cccc23)C1c1ccc(Cl)cc1` (centres undefined): 3180 nM and 12100 nM.
Take `COc1cccc(-n2cnc3c(N/N=C/c4ccncc4)ncnc32)c1`: the GI50 was 6400 nM and the TGI was over 25000 nM.
The matching figures for `CC([C@H]1CCC2C3CCC4C(=O)C(NC=O)=CC[C@]4(C)C3CC[C@@]21C)N(C)C` (some centres undefined): 1900 nM and 6260 nM.
The corresponding values for `O=C1/C(=C/c2ccc(F)cc2)CN(Cc2cn(CCNc3ccnc4cc(Cl)ccc34)nn2)C/C1=C\c1ccc(F)cc1` are 1390 nM and 3130 nM.
